MIC data for 14 compounds are collected here from ChEMBL document CHEMBL3044576, “Synthesis of promising antimicrobial agents: a novel series of N-(4-(2,6-dichloroquinolin-3-yl)-6-(aryl)pyrimidin-2-yl)-2-morpholinoacetamides” (2013).

Holding throughout (assay type): functional
The subject of one experiment is Aspergillus clavatus. As to the kind of experiment: Antifungal activity against Aspergillus clavatus MTCC 1323 after 72 hr by serial broth dilution method. As to conditions: MTCC 1323, 72 h.
The next experiment relates to Streptococcus pyogenes. The experiment can be described thus: Antibacterial activity against Streptococcus pyogenes MTCC 442 after 24 to 48 hr by serial broth dilution method. Background: Broth dilution looks for growth in wells or tubes with falling amounts of substance.
The next experiment relates to Pseudomonas aeruginosa. As to the kind of experiment: Antibacterial activity against Pseudomonas aeruginosa MTCC 1688 after 24 to 48 hr by serial broth dilution method.
In the next experiment the test system is Staphylococcus aureus. The experiment can be described thus: Antibacterial activity against Staphylococcus aureus MTCC 96 after 24 to 48 hr by serial broth dilution method.
The next experiment relates to Escherichia coli. The experiment can be described thus: Antibacterial activity against Escherichia coli MTCC 443 after 24 to 48 hr by serial broth dilution method.
Another experiment has as its system Candida albicans. As to the kind of experiment: Antifungal activity against Candida albicans MTCC 227 after 72 hr by serial broth dilution method. As to conditions: MTCC 227, 72 h.
Another experiment concerns Aspergillus niger. As to the kind of experiment: Antifungal activity against Aspergillus niger MTCC 282 after 72 hr by serial broth dilution method. Particulars: MTCC 282, 72 h.

Molecules are shown by their SMILES. ≈ marks a conversion by molar mass, not a printed value.

Consider `O=C(CN1CCOCC1)Nc1nc(-c2ccccc2)cc(-c2cc3cc(Cl)ccc3nc2Cl)n1`, for which the MIC was determined as 1000 µg/mL (≈ 2020 µM) in the experiment on Aspergillus clavatus; 1000 µg/mL (≈ 2020 µM) with Streptococcus pyogenes; 250 µg/mL (≈ 506 µM) against Pseudomonas aeruginosa; 1000 µg/mL (≈ 2020 µM) against Staphylococcus aureus; 500 µg/mL (≈ 1010 µM) in the experiment with Escherichia coli; 1000 µg/mL (≈ 2020 µM) in the experiment on Candida albicans. This compound also displayed an MIC with Aspergillus niger of 1000 µg/mL (≈ 2020 µM).

With `O=C(CN1CCOCC1)Nc1nc(-c2ccccc2O)cc(-c2cc3cc(Cl)ccc3nc2Cl)n1`, the MIC in the experiment with Aspergillus clavatus worked out at 500 µg/mL (≈ 980 µM); against Streptococcus pyogenes, 500 µg/mL (≈ 980 µM); in the experiment on Pseudomonas aeruginosa it was 250 µg/mL (≈ 490 µM); against Staphylococcus aureus it was 500 µg/mL (≈ 980 µM); in the experiment on Escherichia coli, 500 µg/mL (≈ 980 µM); in the experiment with Candida albicans, 1000 µg/mL (≈ 1960 µM). Also, the MIC in the experiment on Aspergillus niger was determined as 500 µg/mL (≈ 980 µM).

Turning to `O=C(CN1CCOCC1)Nc1nc(-c2ccc(O)cc2)cc(-c2cc3cc(Cl)ccc3nc2Cl)n1`, the MIC against Aspergillus clavatus stood at 1000 µg/mL (≈ 1960 µM); against Streptococcus pyogenes, 1000 µg/mL (≈ 1960 µM); in the experiment on Pseudomonas aeruginosa, 1000 µg/mL (≈ 1960 µM); in the experiment with Staphylococcus aureus it was 500 µg/mL (≈ 980 µM); against Escherichia coli, 500 µg/mL (≈ 980 µM); in the experiment with Candida albicans, 1000 µg/mL (≈ 1960 µM). In the experiment with Aspergillus niger, this compound returned a minimum inhibitory concentration (MIC) of 1000 µg/mL (≈ 1960 µM).

Take `COc1ccc(-c2cc(-c3cc4cc(Cl)ccc4nc3Cl)nc(NC(=O)CN3CCOCC3)n2)cc1`: the MIC against Aspergillus clavatus amounted to 500 µg/mL (≈ 953 µM); in the experiment on Streptococcus pyogenes, 500 µg/mL (≈ 953 µM); against Pseudomonas aeruginosa, 250 µg/mL (≈ 477 µM); with Staphylococcus aureus, 500 µg/mL (≈ 953 µM); against Escherichia coli, 250 µg/mL (≈ 477 µM); against Candida albicans, 1000 µg/mL (≈ 1910 µM). In addition, in the experiment with Aspergillus niger, the minimal inhibitory concentration (MIC) was determined as 500 µg/mL (≈ 953 µM).

In the case of `O=C(CN1CCOCC1)Nc1nc(-c2ccccc2Cl)cc(-c2cc3cc(Cl)ccc3nc2Cl)n1`, the MIC in the experiment on Aspergillus clavatus came out at 25 µg/mL (≈ 47.3 µM); in the experiment with Streptococcus pyogenes, 100 µg/mL (≈ 189 µM); in the experiment on Pseudomonas aeruginosa, 250 µg/mL (≈ 473 µM); against Staphylococcus aureus, 250 µg/mL (≈ 473 µM); with Escherichia coli it was 50 µg/mL (≈ 94.5 µM); with Candida albicans it was 500 µg/mL (≈ 945 µM). This compound also registered an MIC in the experiment on Aspergillus niger of 100 µg/mL (≈ 189 µM).

On to `O=C(CN1CCOCC1)Nc1nc(-c2ccc(Cl)cc2)cc(-c2cc3cc(Cl)ccc3nc2Cl)n1`, for which the minimal inhibitory concentration (MIC) came out at 100 µg/mL (≈ 189 µM) with Aspergillus clavatus; 50 µg/mL (≈ 94.5 µM) in the experiment with Streptococcus pyogenes; 25 µg/mL (≈ 47.3 µM) against Pseudomonas aeruginosa; 250 µg/mL (≈ 473 µM) in the experiment with Staphylococcus aureus; 100 µg/mL (≈ 189 µM) with Escherichia coli; 100 µg/mL (≈ 189 µM) in the experiment on Candida albicans. Also, the minimal inhibitory concentration (MIC) in the experiment with Aspergillus niger is 100 µg/mL (≈ 189 µM).

On to `O=C(CN1CCOCC1)Nc1nc(-c2ccccc2F)cc(-c2cc3cc(Cl)ccc3nc2Cl)n1`, for which the MIC came to 50 µg/mL (≈ 97.6 µM) in the experiment on Aspergillus clavatus; 100 µg/mL (≈ 195 µM) with Streptococcus pyogenes; 50 µg/mL (≈ 97.6 µM) in the experiment with Pseudomonas aeruginosa; 50 µg/mL (≈ 97.6 µM) against Staphylococcus aureus; 50 µg/mL (≈ 97.6 µM) with Escherichia coli; 250 µg/mL (≈ 488 µM) against Candida albicans. For the same compound, the MIC in the experiment with Aspergillus niger came out at 25 µg/mL (≈ 48.8 µM).

`O=C(CN1CCOCC1)Nc1nc(-c2cccc(F)c2)cc(-c2cc3cc(Cl)ccc3nc2Cl)n1`: the MIC against Aspergillus clavatus is 100 µg/mL (≈ 195 µM); against Streptococcus pyogenes, 500 µg/mL (≈ 976 µM); in the experiment on Pseudomonas aeruginosa, 100 µg/mL (≈ 195 µM); against Staphylococcus aureus, 250 µg/mL (≈ 488 µM); with Escherichia coli, 100 µg/mL (≈ 195 µM); against Candida albicans, 1000 µg/mL (≈ 1950 µM). Further, 100 µg/mL (≈ 195 µM) was the least that counted as inhibitory against Aspergillus niger (MIC).

In the case of `O=C(CN1CCOCC1)Nc1nc(-c2ccc(F)cc2)cc(-c2cc3cc(Cl)ccc3nc2Cl)n1`, the minimum inhibitory concentration (MIC) stood at 12.5 µg/mL (≈ 24.4 µM) with Aspergillus clavatus; 100 µg/mL (≈ 195 µM) with Streptococcus pyogenes; 250 µg/mL (≈ 488 µM) in the experiment with Pseudomonas aeruginosa; 500 µg/mL (≈ 976 µM) with Staphylococcus aureus; 25 µg/mL (≈ 48.8 µM) against Escherichia coli; 500 µg/mL (≈ 976 µM) against Candida albicans. The compound also yielded an MIC against Aspergillus niger of 1000 µg/mL (≈ 1950 µM).

In the case of `O=C(CN1CCOCC1)Nc1nc(-c2ccccc2[N+](=O)[O-])cc(-c2cc3cc(Cl)ccc3nc2Cl)n1`, the MIC was 50 µg/mL (≈ 92.7 µM) against Aspergillus clavatus; 12.5 µg/mL (≈ 23.2 µM) against Streptococcus pyogenes; 50 µg/mL (≈ 92.7 µM) in the experiment with Pseudomonas aeruginosa; 500 µg/mL (≈ 927 µM) with Staphylococcus aureus; 12.5 µg/mL (≈ 23.2 µM) against Escherichia coli; 100 µg/mL (≈ 185 µM) in the experiment on Candida albicans. In the experiment with Aspergillus niger, this compound displayed an MIC of 25 µg/mL (≈ 46.3 µM).

Turning to `O=C(CN1CCOCC1)Nc1nc(-c2cccc([N+](=O)[O-])c2)cc(-c2cc3cc(Cl)ccc3nc2Cl)n1`, the MIC against Aspergillus clavatus is 100 µg/mL (≈ 185 µM); against Streptococcus pyogenes, 100 µg/mL (≈ 185 µM); with Pseudomonas aeruginosa, 100 µg/mL (≈ 185 µM); in the experiment with Staphylococcus aureus, 50 µg/mL (≈ 92.7 µM); against Escherichia coli, 100 µg/mL (≈ 185 µM); in the experiment with Candida albicans, 500 µg/mL (≈ 927 µM). In addition, in the experiment on Aspergillus niger, it took 50 µg/mL (≈ 92.7 µM) to inhibit growth (MIC).

As to `O=C(CN1CCOCC1)Nc1nc(-c2ccc([N+](=O)[O-])cc2)cc(-c2cc3cc(Cl)ccc3nc2Cl)n1`, the MIC came to 25 µg/mL (≈ 46.3 µM) with Aspergillus clavatus; 250 µg/mL (≈ 463 µM) in the experiment on Streptococcus pyogenes; 250 µg/mL (≈ 463 µM) with Pseudomonas aeruginosa; 100 µg/mL (≈ 185 µM) against Staphylococcus aureus; 250 µg/mL (≈ 463 µM) against Escherichia coli; 250 µg/mL (≈ 463 µM) in the experiment on Candida albicans. In the experiment with Aspergillus niger, this compound showed an MIC of 100 µg/mL (≈ 185 µM).

With `CC1(C)S[C@@H]2[C@H](NC(=O)[C@H](N)c3ccccc3)C(=O)N2[C@H]1C(=O)O` [AMPICILLIN], the MIC against Streptococcus pyogenes worked out at 100 µg/mL (≈ 286 µM); against Pseudomonas aeruginosa, 100 µg/mL (≈ 286 µM); against Staphylococcus aureus it was 250 µg/mL (≈ 715 µM); in the experiment with Escherichia coli it was 100 µg/mL (≈ 286 µM).

In the case of `COC1=CC(=O)C[C@@H](C)[C@]12Oc1c(Cl)c(OC)cc(OC)c1C2=O` [GRISEOFULVIN], the MIC stood at 100 µg/mL (≈ 283 µM) against Aspergillus clavatus, 500 µg/mL (≈ 1420 µM) with Candida albicans and 100 µg/mL (≈ 283 µM) against Aspergillus niger.

The MIC is the lowest concentration that inhibits growth of the organism. A higher MIC goes with a less susceptible organism.
